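These data come from cells grown in 96-well plates and exposed to compound for 48 hours at five concentrations. GI50: concentration for 50% inhibition of growth.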 Active and inactive are the calls of the source. Cut-off read from the data, not from the text of the source: active = GI50 up to about 1.1 µM and inactive = higher.
What was measured:
Experiment in all cases: NCI anticancer screen, dose series, 48 h
UACC-62 = test system: UACC-62
MDA-MB-435 = test system: MDA-MB-435
RPMI-8226 = test system: RPMI-8226
ACHN = test system: ACHN
SW-620 = test system: SW-620
HCT-15 = test system: HCT-15
M14 = test system: M14
SNB-19 = test system: SNB-19
EKVX = test system: EKVX
HOP-62 = test system: HOP-62
A498 = test system: A498
Malme-3M = test system: Malme-3M
SK-MEL-2 = test system: SK-MEL-2
HCT-116 = test system: HCT-116
IGROV-1 = test system: IGROV-1
T47D = test system: T47D
SF-539 = test system: SF-539
UACC-257 = test system: UACC-257
SK-MEL-5 = test system: SK-MEL-5
MDA-N = test system: MDA-N
MDA-MB-231 = test system: MDA-MB-231
CAKI-1 = test system: CAKI-1
Hs-578T = test system: Hs-578T
CCRF-CEM = test system: CCRF-CEM
UO-31 = test system: UO-31
U-251 = test system: U-251
OVCAR-3 = test system: OVCAR-3
KM12 = test system: KM12
DU-145 = test system: DU-145
HT-29 = test system: HT-29
HOP-92 = test system: HOP-92
A549 = test system: A549
SK-MEL-28 = test system: SK-MEL-28
MCF7 = test system: MCF7
NCI-H522 = test system: NCI-H522
HCC 2998 = test system: HCC 2998
NCI-H460 = test system: NCI-H460
OVCAR-5 = test system: OVCAR-5
TK-10 = test system: TK-10
LOX IMVI = test system: LOX IMVI
SN12C = test system: SN12C
BT-549 = test system: BT-549
SK-OV-3 = test system: SK-OV-3
RXF 393 = test system: RXF 393
K562 = test system: K562
MOLT-4 = test system: MOLT-4
SNB-75 = test system: SNB-75
NCI-H23 = test system: NCI-H23
SF-268 = test system: SF-268
HL-60 = test system: HL-60
NCI-H226 = test system: NCI-H226
SR = test system: SR
SF-295 = test system: SF-295
NCI/ADR-RES = test system: NCI/ADR-RES
OVCAR-8 = test system: OVCAR-8
OVCAR-4 = test system: OVCAR-4
PC-3 = test system: PC-3
786-0 = test system: 786-0
COLO 205 = test system: COLO 205

CCOC(=O)NC(Nc1cc(Cl)ccc1OC)(C(F)(F)F)C(F)(F)F
GI50 (UACC-62): > 100 µM (inactive) | GI50 (MDA-MB-435): > 100 µM (inactive) | GI50 (RPMI-8226): > 100 µM (inactive) | GI50 (ACHN): > 100 µM (inactive) | GI50 (SW-620): > 100 µM (inactive) | GI50 (HCT-15): > 100 µM | GI50 (M14): > 100 µM (inactive) | GI50 (SNB-19): > 100 µM (inactive) | GI50 (EKVX): > 100 µM (inactive) | GI50 (HOP-62): > 100 µM (inactive) | GI50 (A498): > 100 µM (inactive) | GI50 (Malme-3M): > 100 µM (inactive) | GI50 (SK-MEL-2): > 100 µM (inactive) | GI50 (HCT-116): > 100 µM (inactive) | GI50 (IGROV-1): > 100 µM (inactive) | GI50 (T47D): > 100 µM (inactive) | GI50 (SF-539): > 100 µM (inactive) | GI50 (UACC-257): > 100 µM (inactive) | GI50 (SK-MEL-5): > 100 µM (inactive) | GI50 (MDA-N): > 100 µM (inactive) | GI50 (MDA-MB-231): > 100 µM (inactive) | GI50 (CAKI-1): > 100 µM (inactive) | GI50 (Hs-578T): > 100 µM (inactive) | GI50 (CCRF-CEM): 25.9 µM (inactive) | GI50 (UO-31): 30.1 µM (inactive) | GI50 (U-251): > 100 µM (inactive) | GI50 (OVCAR-3): > 100 µM (inactive) | GI50 (KM12): > 100 µM (inactive) | GI50 (DU-145): > 100 µM (inactive) | GI50 (HT-29): > 100 µM (inactive) | GI50 (HOP-92): > 100 µM (inactive) | GI50 (A549): > 100 µM (inactive) | GI50 (SK-MEL-28): > 100 µM (inactive) | GI50 (MCF7): > 100 µM (inactive) | GI50 (NCI-H522): 64 µM (inactive) | GI50 (HCC 2998): > 100 µM (inactive) | GI50 (NCI-H460): > 100 µM (inactive) | GI50 (OVCAR-5): > 100 µM (inactive) | GI50 (TK-10): > 100 µM (inactive) | GI50 (LOX IMVI): > 100 µM (inactive) | GI50 (SN12C): > 100 µM (inactive) | GI50 (BT-549): > 100 µM (inactive) | GI50 (SK-OV-3): > 100 µM (inactive) | GI50 (RXF 393): 68.9 µM (inactive) | GI50 (K562): > 100 µM (inactive) | GI50 (MOLT-4): > 100 µM (inactive) | GI50 (SNB-75): > 100 µM (inactive) | GI50 (NCI-H23): > 100 µM (inactive) | GI50 (SF-268): > 100 µM (inactive) | GI50 (HL-60): > 100 µM (inactive) | GI50 (NCI-H226): > 100 µM (inactive) | GI50 (SR): 74.3 µM (inactive)

O=C1C=C(NCCc2ccc(O)cc2)C(=O)C=C1NCCc1ccc(O)cc1
GI50 (UACC-62): > 100 µM (inactive) | GI50 (MDA-MB-435): 49.1 µM (inactive) | GI50 (RPMI-8226): > 100 µM (inactive) | GI50 (ACHN): > 100 µM (inactive) | GI50 (SW-620): > 100 µM (inactive) | GI50 (HCT-15): > 100 µM | GI50 (SNB-19): > 100 µM (inactive) | GI50 (EKVX): > 100 µM (inactive) | GI50 (SF-295): > 100 µM (inactive) | GI50 (HOP-62): 64 µM (inactive) | GI50 (A498): > 100 µM (inactive) | GI50 (Malme-3M): > 100 µM (inactive) | GI50 (SK-MEL-2): > 100 µM (inactive) | GI50 (HCT-116): 50 µM (inactive) | GI50 (IGROV-1): > 100 µM (inactive) | GI50 (T47D): > 100 µM (inactive) | GI50 (UACC-257): > 100 µM (inactive) | GI50 (SK-MEL-5): > 100 µM (inactive) | GI50 (MDA-MB-231): 47.1 µM (inactive) | GI50 (CAKI-1): > 100 µM (inactive) | GI50 (Hs-578T): 85.3 µM (inactive) | GI50 (CCRF-CEM): 46.9 µM (inactive) | GI50 (UO-31): > 100 µM (inactive) | GI50 (U-251): 32.2 µM (inactive) | GI50 (OVCAR-3): > 100 µM (inactive) | GI50 (KM12): > 100 µM (inactive) | GI50 (NCI/ADR-RES): > 100 µM (inactive) | GI50 (DU-145): > 100 µM (inactive) | GI50 (HT-29): > 100 µM (inactive) | GI50 (HOP-92): 71.1 µM (inactive) | GI50 (A549): > 100 µM (inactive) | GI50 (SK-MEL-28): > 100 µM (inactive) | GI50 (MCF7): > 100 µM (inactive) | GI50 (NCI-H522): > 100 µM (inactive) | GI50 (OVCAR-8): 48.8 µM (inactive) | GI50 (HCC 2998): > 100 µM (inactive) | GI50 (NCI-H460): > 100 µM (inactive) | GI50 (OVCAR-5): > 100 µM (inactive) | GI50 (TK-10): > 100 µM (inactive) | GI50 (OVCAR-4): > 100 µM (inactive) | GI50 (LOX IMVI): 35.1 µM (inactive) | GI50 (PC-3): > 100 µM (inactive) | GI50 (SN12C): > 100 µM (inactive) | GI50 (BT-549): > 100 µM (inactive) | GI50 (SK-OV-3): 54.3 µM (inactive) | GI50 (786-0): > 100 µM (inactive) | GI50 (COLO 205): > 100 µM (inactive) | GI50 (RXF 393): > 100 µM (inactive) | GI50 (K562): 38 µM (inactive) | GI50 (MOLT-4): 46.5 µM (inactive) | GI50 (SNB-75): 19.6 µM (inactive) | GI50 (NCI-H23): > 100 µM (inactive) | GI50 (SF-268): > 100 µM (inactive) | GI50 (HL-60): 19.2 µM (inactive) | GI50 (NCI-H226): > 100 µM (inactive) | GI50 (SR): > 100 µM (inactive)
